Measurements as given in patent US20200339544A1 (JOINT STOCK COMPANY "BIOCAD", priority 2017, published 2020).
Like-named read-outs stand apart in the source and are kept apart here. Marks after values point to notes of the source that are not given here.

Columns and labels:
HepG2 cells = assay: General cytotoxicity on HepG2 cells; format: cell-based; conditions: therapeutic index, CC50 HepG2 / IC50 H1975
Outline: (§1)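 HepG2 cells seeded at 2*10^4 cells per well and compounds added in DMEM with 2% FBS for 72 h at 37 °C. Viability read with Alamar Blue and CC50 derived as for IC50. Therapeutic index taken as HepG2 CC50 over H1975 IC50.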

[1] = General cytotoxicity on HepG2 cells; format: cell-based; conditions: human; general cytotoxicity, HepG2 cells, 72 hours, average of several tests
Outline: as §1

[2] = biological target: T1, DM EGFR (DoubleMutantEGFR, L828R/T790M) (Homo sapiens, UniProt P00533, L858R/T790M); assay: Inhibition of DM EGFR kinase activity (ADP-Glo); format: biochemical; conditions: for IC50: inhibition of kinase activity, EGFR DM (L828R/T790M); for SI, IC50(WT)/IC50(DM): selectivity index, kinase EGFR WT vs EGFR DM
T1 construct: purchased SignalChem
Outline: (§2)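 Recombinant WT or double-mutant EGFR was incubated with a solution of 0.5 mg/mL peptide substrate and 50 μM ATP for 180 minutes at 37° C. Kinase activity was detected by ADP-Glo luminescence. IC50 values came from a four-parameter logistic fit.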

[3] = tested on: A549 (lung adenocarcinoma, WT); assay: Antiproliferative activity on A549 cells (Alamar Blue); format: cell-based; conditions: Homo sapiens, antiproliferative test
Outline: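 Cells seeded at 5*10^3/well in RPMI-1640 with 2% FBS, attached 16-18 h at 37° C, then exposed to compounds (≤1% DMSO) for 72 h. Alamar Blue added for 3-5 h; fluorescence read at 540/590 nm. IC50 from four-parameter logistic fit.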

[4] = Chemical stability in simulated intestinal fluid (SIF); format: physicochemical; conditions: SIF without enzymes, pH 6.5; 10 μm; 2 hours at 37° C.; substance amount remaining
Description: (§3) 1) Determination of chemical stability in simulated intestinal fluid, simulated gastric fluid and human blood plasma.
(§4) SGF concentrate without enzymes, pH=1,4 (Sigma Ireland, cat #01651) was used as simulated gastric fluid. Initial candidate solution (10 mM in DMSO) was diluted with a SGF working solution to a concentration of 10 μm (test solution). The test solution was incubated in a dry block thermostat for 2 hours at 37° C. SIF concentrate without enzymes, pH=6.5 (Sigma Ireland, cat #55331) was used as simulated intestinal fluid. Initial candidate solution (10 mM in DMSO) was diluted with a SIF working solution to a concentration of 10 μm (test solution). The test solution was incubated in a dry block thermostat for 2 hours at 37° C. HPLC with Agilent 1200 liquid chromatography system (Agilent, USA) was employed to determine peak areas of the compounds in test samples, said peak areas corresponding to the initial test time (prior to incubation) and the final test time (after incubation in a dry block thermostat for 2 hours at 37° C.). We used gradient elution (1 mL/min flow rate). Substance amount in % in a sample after thermostatting was determined.
(§5) The stability of the compounds was estimated.

[5] = tested on: H1975 (lung adenocarcinoma, DM, L828R/T790M); assay: Antiproliferative activity on H1975 cells (Alamar Blue); format: cell-based; conditions: for IC50: Homo sapiens, NCI-H1975, H1975 cells; for SI IC50(A549)/IC50(DM): selectivity index, A549 vs H1975 cells
Outline: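 H1975 cells (15*10^3/well) attached 16-18 h in RPMI-1640 with 2% FBS, then exposed to compounds (≤1% DMSO final) for 72 h at 37 °C. Viability by Alamar Blue fluorescence (Ex 540/Em 590 nm) after 3-5 h; IC50 from four-parameter logistic fit.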

WT EGFR (Wild-Type EGFR) = biological target: T2, WT EGFR (Wild-Type EGFR) (Homo sapiens, UniProt P00533); assay: Inhibition of WT EGFR kinase activity (ADP-Glo); format: biochemical
T2 construct: purchased SignalChem
Outline: as §2

[6] = tested on: HCC827 (lung adenocarcinoma, SM, exon19delE746-A750); assay: Antiproliferative activity on HCC827 cells (Alamar Blue); format: cell-based; conditions: Homo sapiens, antiproliferative test
Description: Antiproliferative activity of EGFR inhibitors (Tables 15 and 16) was measured in cell-based bioassay on continuous epithelial cell cultures: A549 (lung adenocarcinoma, ATCC® CRM-CCL-185™—WT), HCC827 (lung adenocarcinoma, ATCC® CRL-2868™—SM (SingleMutantEGFR, exon19delE746-A750)) and H1975 (lung adenocarcinoma, ATCC® CRL-5908™—DM (DoubleMutantEGFR, L828R/T790M)) using cell viability reagent Alamar Blue (ThermoFisher, # DAL1100). Cells were cultured in 10% FBS-supplemented (Gibco, #16140071) RPMI-1640 (PanEco, S330p) for at least 1 passage after thawing, washed with PBS and passaged in 96-well culture plates (3599, Corning) with RPMI-1640 growth medium supplemented with 2% FBS in an amount of 5*10^3 cells/well for A549, 10*10^3 cells/well for HCC827 and 15*10^3 cells/well for H1975 in 100 μL, and incubated at 37° C. in an incubator (Thermo Forma, USA) under 5% of CO2 for 16-18 h for cell attachment.
The test compounds were dissolved in DMSO in the selected range of concentrations and transferred to RPMI-1640 medium (PanEco, S330p) supplemented with 2% FBS. After adding 50 μl of the prepared dilutions to the cells, the incubation mixture contained the final concentrations of the test substances and no more than 1% DMSO. The plates were Incubated at 37° C. for 72 h. After incubation, 15 μl of Alamar Blue vital dye (ThermoFisher, # DAL1100) was added to each well. The plates were shaken on an orbital shaker (Biosan, Latvia) and further incubated for 3-5 h in a CO2 incubator (Thermo Forma, USA). Number of living cells was estimated using a plate spectrophotometer Infinite M200Pro, (Tecan, Switzerland) measuring fluorescent signal at the excitation wavelength (λEx) of 540 nm and emission wavelength (λEm) of 590 nm.
IC50 was calculated using Magellan 7.2 software (Tecan, Switzerland) approximating experimental points by four-parameter logistic model with the optimization by Levenberg-Marquardt.

[7] = Chemical stability in simulated gastric fluid (SGF); format: physicochemical; conditions: SGF without enzymes, pH 1,4; 10 μm; 2 hours at 37° C.; substance amount remaining
Description: as §3, §4, §5

[8] = Chemical stability in human blood plasma; format: in vitro ADME; conditions: pooled human blood plasma; 10 μm; 4 hours at 37° C.; substance amount remaining
Outline: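 Pooled plasma from ten healthy donors was spiked to 10 μM from a 10 mM DMSO stock and held 4 h at 37 °C. After acetonitrile protein precipitation, HPLC peak areas before and after incubation gave the percentage of compound remaining.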

[9] = average values obtained in several tests, Table 16, read-out: H1975 (DM) IC50
[10] = antiproliferative test, Table 15, read-out: IC50 H1975 (DM)

SMILES	TI, CC50/IC50 (HepG2 cells)	CC50 at 72 h [1]	IC50 [2]	SI, IC50(WT)/IC50(DM) [2]	IC50 [3]	Stability in SIF, % [4]	IC50 [5, 9]	IC50 [5, 10]	SI IC50(A549)/IC50(DM) [5]	IC50 (WT EGFR (Wild-Type EGFR))	IC50 [6]	Stability in SGF, % [7]	Stability in blood plasma, % [8]
C=CC(=O)Nc1cc(Nc2cc(C(=O)c3ccc(N4CCOCC4)cc3)ccn2)c(OC)cc1N(C)CCN(C)C.O=C(O)C(F)(F)F [EGFR_3365_5, N-(2-((2-(dimethylamino)ethyl)(methyl)amino)-4-methoxy-5-((4-(4-morpholinobenzoyl)pyridin-2-yl)amino)phenyl)acrylamide 2,2,2-trifluoroacetate]	309	17700 nM	22 nM	21.03	7590 nM	89.8%	57.3 nM	57.3 nM	132.56	464 nM	28.6 nM	100.0%	–
C=CC(=O)Nc1cc(Nc2nccc(C(=O)c3cccc(F)c3)n2)c(OC)cc1N(C)CCN(C)C [EGFR_3365_11, N-(2-((2-(dimethylamino)ethyl)(methyl)amino)-5-((4-(3-fluorobenzoyl)pyrimidin-2-yl)amino)-4-methoxyphenyl) acrylamide]	43	15000 nM	6.44 nM	26.43	12400 nM	100.0%	351 nM	351 nM	35.37	170 nM	6.2 nM	100.0%	85.4%
C=CC(=O)Nc1cc(Nc2nccc(C(=O)c3ccc(Br)cc3)n2)c(OC)cc1N(C)CCN(C)C [EGFR_3365_13, N-(5-((4-(4-bromobenzoyl)pyrimidin-2-yl)amino)-2-((2-(dimethylamino)ethyl) (methyl)amino)-4-methoxyphenyl)acrylamide]	460	14100 nM	18.1 nM	6.22	4480 nM	100.0%	30.8 nM	30.8 nM	145.63	113 nM	10.3 nM	98.9%	82.4%
C=CC(=O)Nc1cc(Nc2nccc(C(=O)c3cccc(OC)c3)n2)c(OC)cc1N(C)CCN(C)C [EGFR_3365_32, N-(2-((2-(dimethylamino)ethyl)(methyl)amino)-4-methoxy-5-((4-(3-methoxybenzoyl)pyrimidin-2-yl)amino)phenyl)acrylamide]	265	24800 nM	5.26 nM	38.41	35100 nM	99.7%	93.4 nM	93.4 nM	376.12	202 nM	11.1 nM	98.0%	67.5%
C=CC(=O)Nc1cc(Nc2nccc(C(=O)c3ccccc3OC)n2)c(OC)cc1N(C)CCN(C)C [EGFR_3365_33, N-(2-((2-(dimethylamino)ethyl)(methyl)amino)-4-methoxy-5-((4-(2-methoxybenzoyl)pyrimidin-2-yl)amino)phenyl)acrylamide]	10285	57600 nM	6.79 nM	11.16	> 10000 nM	96.8%	5.6 nM	5.6 nM	>1786**	75.8 nM	5.9 nM	99.5%	60.5%
C=CC(=O)Nc1cc(Nc2nccc(C(=O)c3cccc([N+](=O)[O-])c3)n2)c(OC)cc1N(C)CCN(C)C [EGFR_3365_34]	62	10300 nM	6.95 nM	74.07	16200 nM	100.0%	164 nM	164 nM	98.26	514 nM	111 nM	99.0%	82.7%
C=CC(=O)Nc1cc(Nc2cc(C(=O)c3ccc(C)cc3)ccn2)c(OC)cc1N(C)CCN(C)C [EGFR_3365_57, N-(2-((2-(dimethylamino)ethyl)(methyl)amino)-4-methoxy-5-((4-(4-methylbenzoyl)pyridin-2-yl)amino)phenyl)acrylamide]	328	22800 nM	6.24 nM	7.96	8640 nM	96.6%	69.4 nM	69.4 nM	124	49.7 nM	5.64 nM	100.0%	–
